The numbers were not newly measured in patent US20260257261A1, “BIOMIMETIC MULTIFUNCTIONAL LIGNOCELLULOSIC DEGRADABLE SORBENT FOR ENVIRONMENTAL REMEDIATION” (THE TEXAS A&M UNIVERSITY SYSTEM, priority 2022, published 2026), which cites them from elsewhere.

For the series the following is noted: previous studies by Mahapatra et al. and others.
As to `O=C(O)C(F)(F)C(F)(F)C(F)(F)C(F)(F)F` [PUPA], the “toxicity relative to PFOA (C8)” value is “much less toxic”. `O=C(O)C(F)(F)C(F)(F)C(F)(F)C(F)(F)C(F)(F)F` [PFHA, perfluorohexanoic acid]: the “toxicity relative to PFOA (C8)” value is reported as “much less toxic”. Regarding `O=C(O)C(F)(F)C(F)(F)C(F)(F)F` [PFBA], the “toxicity relative to PFOA (C8)” value was “much less toxic”.
